Measured values taken from patent US7596407B2, “Transdermal iontophoretic delivery of piperazinyl-2(3H)-benzoxazolone compounds” (priority 2004, dated 2009).

How the values were obtained:
[1] = Iontophoretic transport across hairless rat skin, vertical Franz diffusion cells; assay type: in vitro ADME; details: 30 mM NaCl; for change of iontophoretic flux with active substance concentration (FIG. 4): phosphate buffer pH 4.0
From the text: Hairless rats were euthanized by inhalation of carbon dioxide using an exposure chamber designed for such use half hour before start of experiment. The skin from the abdomen was carefully removed, making sure no muscle or fat was attached to the skin. The skin was then cut into small squares to fit the Franz diffusion set (Membrane Transport System, PermeGear, U.S.A) and placed in 0.1 M potassium phosphate buffer until mounted.
(§1) 7-(4-methyl-1-piperazinyl)-2(3H)-benzoxazolone as a HCl salt was dissolved in 10 mM sodium citrate solution. The pH was adjusted to pH 5.5 with 10 mM citric acid. 7-(4-benzyl-1-piperazinyl)-2(3H)-benzoxazolone as a mesylate salt was dissolved in 0.1 M potassium phosphate buffer. The pH was adjusted to pH 4.0 using o-phosphoric acid.
Iontophoresis experiments with 7-(4-benzyl-1-piperazinyl)-2(3H)-benzoxazolone were performed using vertical Franz diffusion cells (Membrane Transport System, PermeGear, U.S.A) hooked up to a Keithley 2400 source meter and the current monitored using a multimeter. The donor half was of the cell was exposed to room temperature (25° C.) while the receptor half was maintained at 37° C. Receptor compartment was continuously stirred. Freshly excised hairless rat skin was mounted on the vertical diffusion cells, after the receptor compartment had been filled with a suitable receptor media, which can maintain the sink condition. The receptor media had the same composition as the donor solution without the drug, so that the sink conditions could be maintained. The formulation was placed in the donor compartment. A silver wire was used as the anode in the donor and a silver/silver chloride wire was used as the cathode in the receptor. Current was applied for 3 hours using a constant current power source. However, sampling was continued till 24 hrs to see if enhanced delivery will stop on terminating current. Samples were taken at pre-determined time intervals from the receptor and analyzed by the HPLC as described below. Samples were replaced with fresh receptor medium and this was taken into consideration in the calculations.
7-(4-benzyl-1-piperazinyl)-2(3H)-benzoxazolone was analyzed using HPLC with UV detection (Waters Alliance system). A Chromsep SS column was used (150*3 mm L*i.d.) with particle size of 5 μm thermostatted at 40° C. The mobile phase was made using 1.54 g ammonium acetate in 460 ml of water (pH adjusted to 4.6 using acetic acid) and 540 ml of methanol and degassed. The flow rate was 0.5 ml/min. The detection wavelength was 243 nm. Injection volume was 10 μl.

[2] = HPLC-UV analysis of sample solutions for oxidation or degradation products; assay type: physicochemical; details: HPLC with UV detection, 215 nm
Protocol: 7-(4-methyl-1-piperazinyl)-2(3H)-benzoxazolone was analyzed using HPLC with UV detection (Waters Chromatography, Etten Leur, The Netherlands). A Chromsep SS column was used (250*3 mm L*i.d.) thermostatted at 30° C. The mobile phase consisted of acetonitrile/methanol/0.7 g/l ammonium acetate buffer at pH 5.6 ([…] v/v) and was used at 0.5 ml/min. The detection wavelength was 215 nm.

[3] = Iontophoretic transport across human stratum corneum, three-chamber continuous flow-through diffusion cells; assay type: in vitro ADME; details: for iontophoretic flux (averages±s.e.m.): 4 g/l NaCl, citrate buffer pH 5.5, 0.5 mA/cm^2; for mean transport during the iontophoretic period: citrate buffer pH 5.5, 0.5 mA/cm^2, no NaCl added; for mean transport during the iontophoretic period (averages±s.e.m.): drug 35 mg/ml, pH 5.5, 0.5 mA/cm^2
Protocol: Human Stratum Corneum (HSC) was prepared from dermatomed healthy human skin. Within 24 hours after surgical removal of the human skin (abdominal or breast), residual subcutaneous fat was removed. To avoid interference with contaminating subcutaneous fat, the skin surface was carefully wiped with a tissue paper soaked in 70% ethanol. The skin was dermatomed to a thickness of about 300 μm using a Padgett Electro Dermatome Model B (Kansas City, USA). It was then incubated with the dermal side on Whatman paper soaked in a solution of 0.1% trypsin in PBS overnight at 4° C. and subsequently for 1 hour at 37° C. Then HSC was peeled off from the underlying epidermis and dermis. Remaining trypsin activity was blocked by bathing HSC in a 0.1% trypsin inhibitor solution in PBS, pH 7.4. HSC was washed several times in water and stored in a silica gel containing desiccator in a N2 environment to inhibit oxidation of lipids.
as §1
Iontophoresis experiments with 7-(4-methyl-1-piperazinyl)-2(3H)-benzoxazolone were performed using 9-channel computer controlled power supply to provide constant current (Electronics Department, Gorlaeus Laboratories, Leiden University, The Netherlands.) Alternatively the commercial available Power Supply PCT-MK1 of Moor Instruments, UK can be used. A silver plate electrode was used as an anode (e.g. Silver foil >99.99% pure, 1.0 mm thick (Aldrich article nr. 36,943-8), 5 cm long, 3 mm wide) and a silver/silver chloride electrode (prepared by repeatedly (2 or 3 times) dipping silver wire (>99.99% pure, Ø 1.0 mm (Aldrich art. Nr. 26,559-4), bended at the tip to produce a small projection (approx. 3 mm) at a right angle to the vertical electrode shaft in melted silver chloride powder (>99.999% pure, Aldrich art. Nr. 20,438-2) as a cathode. (Alternatively, the silver plate and silver/silver chloride electrodes can be prepared according to chapter 3.4.3. of Ajay K. Banga, Electrically Assisted Transdermal and Topical Drug Delivery, Taylor and Francis Group Ltd., London UK, 1998, ISBN 0-7484-0687-5. or can be purchased from a commercial supplier such as Iomed.)
All diffusion experiments were carried out at a constant current density of 0.5 mA/cm^2, using three chambers continuous flow through diffusion cells at room temperature. The diffusion set up consisted of a peristaltic pump, a fraction collector and 8 diffusion cells (for diffusion cell see FIG. 4). Stratum corneum was used for all diffusion studies. Human stratum corneum was hydrated for two hours in PBS pH 7.4 prior to mounting in the cells. Two pieces of stratum corneum were placed between the anodal and acceptor side, and between acceptor and cathodal side, with the apical side facing the anodal and cathodal compartments. Dialysis membrane (cut off 5,000 D) was used as supporting membrane for the stratum corneum. Parafilm rings were added for making a tight connection between the compartments. The temperature of the acceptor chamber was 37° C. The flow of PBS through the acceptor chamber was kept approximately constant for each cell during the experiment: 6-8 ml per hour. After six hours of passive diffusion, the current was switched on. The current was switched off at t=15 h. During a period of another 5 hours (post iontophoretic period) passive diffusion post iontophoresis was carried out. During iontophoresis, the current density was 0.5 mA/cm^2. The total resistance of the stratum corneum sheets was monitored during the experiment with two additional silver electrodes. A very low resistance is indicative of leakage of the stratum corneum in a cell. When this was observed, the diffusion data obtained were discarded. […]

[4] = Solubility in donor buffer

SMILES | permeation with iontophoresis as compared to passive delivery (FIG. 5) ([1]; current densities 0, 0.1, 0.3 and 0.5 mA) | relationship between flux and current density (FIG. 5) ([1]; 5 g/ml solution, current densities 0, 0.1, 0.3 and 0.5 mA) | change of iontophoretic flux with active substance concentration (FIG. 4) ([1]; further increase to 10 mg/ml) | change of iontophoretic flux with active substance concentration (FIG. 4) ([1]; increase from 1 mg/ml to 5 mg/ml) | oxidation or degradation products in chromatograms of the sample solutions [2] | iontophoretic flux (averages±s.e.m.) ([3]; donor concentration 20 mg/ml) | mean transport during the iontophoretic period ([3]; donor concentration 20 mg/ml) | iontophoretic flux (averages±s.e.m.) ([3]; donor concentration 35 mg/ml) | mean transport during the iontophoretic period ([3]; donor concentration 35 mg/ml) | iontophoretic flux (averages±s.e.m.) ([3]; donor concentration 55 mg/ml) | mean transport during the iontophoretic period ([3]; donor concentration 55 mg/ml) | mean transport during the iontophoretic period ([3]; donor concentration 75 mg/ml) | mean transport during the iontophoretic period (averages±s.e.m.) ([3]; sodium chloride 0 mg/ml) | mean transport during the iontophoretic period (averages±s.e.m.) ([3]; sodium chloride 2 mg/ml) | mean transport during the iontophoretic period (averages±s.e.m.) ([3]; sodium chloride 4 mg/ml) | share of the maximum solubility that a 35 mg/ml solution represents ([4]; 35 mg/ml, 10 mM citrate pH 5.5, 4 mg/ml NaCl) | share of the maximum solubility that a 55 mg/ml solution represents ([4]; 55 mg/ml in citrate buffer at pH 5.5 in the presence of 4 g/l NaCl) | share of the maximum solubility that a 75 mg/ml solution represents ([4]; 75 mg/ml in citrate buffer at pH 5.5) | dependence of solubility on NaCl concentration ([4]; citrate pH 5.5, NaCl 0-4 mg/ml)
CS(=O)(=O)O.O=c1[nH]c2cccc(N3CCN(Cc4ccccc4)CC3)c2o1 [7-(4-benzyl-1-piperazinyl)-2(3H)-benzoxazolone mesylate] | considerably enhances the permeation | linear relationship between flux and current density | no increase in iontophoretic flux | increase in iontophoretic flux |  |  |  |  |  |  |  |  |  |  |  |  |  |  | 
CN1CCN(c2cccc3[nH]c(=O)oc23)CC1.Cl [7-(4-methyl-1-piperazinyl)-2(3H)-benzoxazolone monohydrochloride] |  |  |  |  | No oxidation or degradation products of the compound were observed | 409±47 μg/hr/cm^2 | 394±26 μg/hr/cm^2 | 467±74 μg/hr/cm^2 | 383±42 μg/hr/cm^2 | 580±87 μg/hr/cm^2 | 459±59 μg/hr/cm^2 | 418±31 μg/hr/cm^2 | 471±65 μg/hr/cm^2 | 377±37 μg/hr/cm^2 | 424±50 μg/hr/cm^2 | 80% | 85% | 85% | increases with reducing NaCl concentration
